This assay deals with T1, IDO-1 (Homo sapiens, UniProt P14902).
T1 construct: expressed in transfected cells; host or cells: HEK293 (hIDO1-HEK293 recombinant cells)
Description: IDO-1 activity by kynurenine levels in hIDO1-HEK293 recombinant cells. The assay is classed as cell-based. The note with it: 10 uM, 24 hours. As to the method: IDO-1 activity was measured indirectly using kynurenine levels using the following protocols. Briefly, hIDO1-HEK293 recombinant cells were plated overnight. The following day the cells were left untreated or treated with 10 uM of ID3, ID3-SA or LNP-ID3-SA for twenty-four (24) hours. The IDO-1 activity was measured by indirect measurement of kynurenine levels by analyzing absorption at 480 nm using IDO1 Cellular Activity QuickDetect™ kit (PBSBioscience, San Diego, CA).

Consider 1 compound from patent publication US12286403B2, “Formulated and/or co-formulated liposome compositions containing IDO antagonist prodrugs useful in the treatment of cancer and methods thereof” (Nammi Therapeutics, Inc., priority 2019, dated 2025).

T1 sequence (P14902 whole entry): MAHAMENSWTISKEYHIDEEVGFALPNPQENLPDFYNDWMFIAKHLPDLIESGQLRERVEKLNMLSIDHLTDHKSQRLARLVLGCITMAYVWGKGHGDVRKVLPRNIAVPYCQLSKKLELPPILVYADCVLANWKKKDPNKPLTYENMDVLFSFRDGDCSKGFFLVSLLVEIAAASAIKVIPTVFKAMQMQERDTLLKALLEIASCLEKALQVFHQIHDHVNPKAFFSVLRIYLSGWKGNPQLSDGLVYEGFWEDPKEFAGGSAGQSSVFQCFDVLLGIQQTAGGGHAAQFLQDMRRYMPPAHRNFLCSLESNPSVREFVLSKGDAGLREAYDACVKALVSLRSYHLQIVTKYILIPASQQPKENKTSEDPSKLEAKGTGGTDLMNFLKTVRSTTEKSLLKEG

As to `CCCCCCCCCCCCCCCCCC(=O)OCOC(=O)N(C(=O)[C@H](C)[C@H]1CC[C@@H](c2ccnc3ccc(F)cc32)CC1)c1ccc(Cl)cc1` [ID3-SA], the “IDO-1 activity (kynurenine levels, absorption at 480 nm)” value is listed as “inhibited IDO-1 activity”.
